For this assay, the target named is T1, human PDE2A1 (Homo sapiens, UniProt O00408).
T1 construct: GST; purchased BPS Bioscience (San Diego, Calif.) 60020; host or cells: insect cells
Put plainly: IMAP FP PDE assay, human PDE2A1. It is filed as biochemical. The note with it: Lab B; read-out: Human PDE2 Ki (nM) Lab B. In outline:
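GST-tagged human PDE2A1 from insect cells; substrate 50 nM FAM-cAMP containing 1000 nM cGMP in Tris pH 7.2/MgCl2/DTT buffer, enzyme giving 20% conversion. 60 min at room temperature, IMAP binding reagent, fluorescence polarization read. Apparent Ki from FP readings using apparent KM 10,000 nM; ten-point 3-fold titrations.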

T1 sequence (O00408 1-920 isoform O00408-2): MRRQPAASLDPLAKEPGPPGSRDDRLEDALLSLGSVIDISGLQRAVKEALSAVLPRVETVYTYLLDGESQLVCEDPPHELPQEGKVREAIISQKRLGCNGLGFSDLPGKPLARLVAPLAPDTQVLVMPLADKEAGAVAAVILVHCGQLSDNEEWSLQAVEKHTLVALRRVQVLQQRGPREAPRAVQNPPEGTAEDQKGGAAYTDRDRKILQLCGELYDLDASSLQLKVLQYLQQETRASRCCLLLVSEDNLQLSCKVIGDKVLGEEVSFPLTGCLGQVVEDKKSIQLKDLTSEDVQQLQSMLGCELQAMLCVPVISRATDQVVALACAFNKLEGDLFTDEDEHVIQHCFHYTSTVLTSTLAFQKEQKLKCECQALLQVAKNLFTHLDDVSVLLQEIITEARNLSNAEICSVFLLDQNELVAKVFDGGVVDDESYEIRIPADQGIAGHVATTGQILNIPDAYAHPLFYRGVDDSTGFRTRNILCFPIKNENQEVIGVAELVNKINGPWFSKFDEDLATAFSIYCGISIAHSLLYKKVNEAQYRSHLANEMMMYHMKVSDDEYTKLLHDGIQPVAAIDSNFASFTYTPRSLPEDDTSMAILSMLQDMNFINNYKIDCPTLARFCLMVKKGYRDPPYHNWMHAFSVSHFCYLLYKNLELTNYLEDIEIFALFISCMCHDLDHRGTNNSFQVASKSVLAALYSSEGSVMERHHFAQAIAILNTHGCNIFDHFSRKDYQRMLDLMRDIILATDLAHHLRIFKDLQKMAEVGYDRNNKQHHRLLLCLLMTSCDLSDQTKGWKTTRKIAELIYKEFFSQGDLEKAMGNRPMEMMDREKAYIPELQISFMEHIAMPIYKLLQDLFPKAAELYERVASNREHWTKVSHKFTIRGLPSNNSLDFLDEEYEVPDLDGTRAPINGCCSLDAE

For `Cc1nc2c(c([C@@H](C)CO)nn2[C@@H](C)c2ccc(C(F)(F)F)cc2)c(=O)[nH]1` (single isomer, unassigned) [Example 320], the Ki was found to be 1.2 nM.

For the compound `Cc1nc2c(c(CO)nn2C(C)c2ncn(CC(F)(F)F)n2)c(=O)[nH]1` (single isomer, unassigned) [Example 147], the inhibition constant (Ki) was above 2960 nM.

For `Cc1nc2c(c(CO)nn2C(C)c2ccc(C(F)(F)F)nn2)c(=O)[nH]1` (single isomer, unassigned) [Example 146, (S)- or (R)-3-(Hydroxymethyl)-6-methyl-1-(1-(6-(trifluoromethyl)pyridazin-3-yl)ethyl)-1H-pyrazolo[3,4-d]pyrimidin-4(5H)-one], the inhibition constant Ki worked out at 58 nM.

As for `Cc1nc2c(c(C(F)(F)CO)nn2C(C)c2ccc(C(F)(F)F)cc2)c(=O)[nH]1` (single isomer, unassigned) [Example 254], the Ki was determined as 452 nM.

Consider `Cc1nc2c(c(C(F)F)nn2C(C)c2ccc(OC(F)(F)F)c(F)c2)c(=O)[nH]1` (single isomer, unassigned) [Example 170, (S)- or (R)-3-(Difluoromethyl)-1-(1-(3-fluoro-4-(trifluoromethoxy)phenyl)ethyl)-6-methyl-1H-pyrazolo [3,4-d]pyrimidin-4(5H)-one], for which the Ki worked out at 0.48 nM.

`Cc1nc2c(c(C(=O)N(C)C)nn2C(C)c2ccc(C(F)(F)F)cc2)c(=O)[nH]1` (single isomer, unassigned) [Example 266, (R)- or (S)-N,N,6-Trimethyl-4-oxo-1-(1-(4-(trifluoromethyl)phenyl)ethyl)-4,5-dihydro-1H-pyrazolo[3,4-d]pyrimidine-3-carboxamide]: the Ki was 654 nM.

Regarding `Cc1nc2c(c(CF)nn2C(c2ccc(OC(F)(F)F)cc2)C2CC2)c(=O)[nH]1` (single isomer, unassigned) [Example 225, (S)- or (R)-1-(Cyclopropyl(4-(trifluoromethoxy)phenyl)methyl)-3-(fluoromethyl)-6-methyl-1,5-dihydro-4H-pyrazolo[3,4-d]pyrimidin-4-one], the Ki is 4.6 nM.

Consider `Cc1nc2c(c(CO)nn2C(C)c2ccc(CC(F)(F)F)cc2)c(=O)[nH]1` (single isomer, unassigned) [Example 122, (R)- or (S)-3-(Hydroxymethyl)-6-methyl-1-(1-(4-(2,2,2-trifluoroethyl)phenyl)ethyl)-1H-pyrazolo[3,4-d]pyrimidin-4(5H)-one], for which the Ki amounted to 194 nM.

As for `Cc1nc2c(c(CO)nn2C(C)c2ccc(C(F)F)cc2)c(=O)[nH]1` (single isomer, unassigned) [Example 110, (R)- or (S)-1-(1-(4-(Difluoromethyl)phenyl)ethyl)-3-(hydroxymethyl)-6-methyl-1H-pyrazolo[3,4-d]pyrimidin-4(5H)-one], the Ki is 1070 nM.

With `CCc1nc2c(c(C(F)F)nn2C(C)c2ccc(C(F)(F)F)cc2)c(=O)[nH]1` (single isomer, unassigned) [Example 190, (S)- or (R)-3-(Difluoromethyl)-6-ethyl-1-(1-(4-(trifluoromethyl)-phenyl)ethyl)-1,5-dihydro-4H-pyrazolo[3,4-d]pyrimidin-4-one], the Ki stood at 2.7 nM.

Regarding `Cc1nc2c(c(CO)nn2C(C)c2ccc(C(F)(F)C(F)(F)F)cc2)c(=O)[nH]1` (single isomer, unassigned) [Example 99, (S)- or (R)-3-(Hydroxymethyl)-6-methyl-1-(1-(4-(perfluoroethyl)phenyl)ethyl)-1H-pyrazolo[3,4-d]pyrimidin-4(5H)-one], the inhibitory constant (Ki) worked out at 4.5 nM.

Consider `CC(c1ccc(C(F)(F)F)cc1)n1nc(CO)c2c(=O)[nH]c(CC3CCCC3)nc21` (single isomer, unassigned) [Example 307, (R)- or (S)-6-(Cyclopentyl-methyl)-3-(hydroxymethyl)-1-(1-(4-(trifluoromethyl)-phenyl)ethyl)-1,5-dihydro-4H-pyrazolo[3,4-d]pyrimidin-4-one], for which the Ki was determined as 13 nM.

For the compound `CC(c1ccc(C(F)(F)F)cc1)n1nc(-c2nnco2)c2c(=O)[nH]c(CC3CC3)nc21` (single isomer, unassigned) [Example 340, (R)- or (S)-6-(Cyclopropylmethyl)-3-(1,3,4-oxadiazol-2-yl)-1-(1-(4-(trifluoromethyl)phenyl)ethyl)-1,5-dihydro-4H-pyrazolo[3,4-d] pyrimidin-4-one], the inhibition constant (Ki) is 2.2 nM.

With `Cc1nc2c(c(OCC(F)(F)F)nn2C(C)c2ccc(C(F)(F)F)cc2)c(=O)[nH]1` (single isomer, unassigned) [Example 288], the Ki is 350 nM.

Regarding `Cc1nc2c(c(CO)nn2C(C)c2ccc3c(c2)OC(F)(F)O3)c(=O)[nH]1` (single isomer, unassigned) [Example 114, (R)- or (S)-1-(1-(2,2-Difluorobenzo[d][1,3]dioxol-5-yl)ethyl)-3-(hydroxymethyl)-6-methyl-1H-pyrazolo[3,4-d]pyrimidin-4(5H)-one], the Ki turned out to be 1210 nM.

Regarding `Cc1nc2c(c(C(F)F)nn2C(C)c2ccc(OC(F)F)cc2)c(=O)[nH]1` (single isomer, unassigned) [Example 181, (R)- or (S)-1-(1-(4-(Difluoromethoxy)phenyl)ethyl)-3-(difluoromethyl)-6-methyl-1H-pyrazolo[3,4-d]pyrimidin-4(5H)-one], the Ki is 82 nM.

Consider `CC1CCC(Cc2nc3c(c(CO)nn3C(C)c3ccc(C(F)(F)F)cc3)c(=O)[nH]2)O1` (racemic) [Example 298, 3-(Hydroxymethyl)-6-[(5-methyltetrahydrofuran-2-yl)methyl]-1-{1-[4-(trifluoromethyl)phenyl]ethyl}-1,5-dihydro-4H-pyrazolo[3,4-d]pyrimidin-4-one], for which the inhibitory constant (Ki) worked out at 62 nM.

Take `Cc1nc2c(c(CO)nn2C(C)c2ccc(C(F)(F)F)cc2I)c(=O)[nH]1` (single isomer, unassigned) [Example 140, (R)- or (S)-3-(Hydroxymethyl)-1-(1-(2-iodo-4-(trifluoromethyl-)phenyl)ethyl)-6-methyl-1,5-dihydro-4H-pyrazolo[3,4-d]pyrimidin-4-one]: the inhibition constant Ki turned out to be 939 nM.

Turning to `Cc1nc2c(c(C(F)F)nn2C(C)c2ccc(C(F)(F)F)nc2)c(=O)[nH]1` (single isomer, unassigned) [Example 195], the inhibitory constant (Ki) is around 1670 nM.

`Cc1nc2c(c(C(F)(F)F)nn2C(C)c2ccc(C(F)(F)F)cc2)c(=O)[nH]1` (single isomer, unassigned) [Example 68, (R)- or (S)-6-Methyl-3-(trifluoromethyl)-1-(1-(4-(trifluoromethyl)phenyl)ethyl)-1H-pyrazolo[3,4-d]pyrimidin-4(5H)-one]: the Ki was 8.6 nM.

In the case of `Cc1nc2c(c(CO)nn2C(C)c2cnn(CC(F)(F)F)c2)c(=O)[nH]1` (single isomer, unassigned) [Example 150, (S)- or (R)-3-(Hydroxymethyl)-6-methyl-1-(1-(1-(2,2,2-trifluoroethyl)-1H-pyrazol-4-yl)ethyl)-1H-pyrazolo[3,4-d]pyrimidin-4(5H)-one], the Ki came out at 158 nM.

`Cc1nc2c(c(CO)nn2C(C)c2ccc(C(F)(F)F)nn2)c(=O)[nH]1` (single isomer, unassigned) [Example 145, (R)- or (S)-3-(Hydroxymethyl)-6-methyl-1-(1-(6-(trifluoromethyl)pyridazin-3-yl)ethyl)-1H-pyrazolo[3,4-d]pyrimidin-4(5H)-one]: the Ki is above 2960 nM.

Regarding `COCC(c1ccc(C(F)(F)F)cc1)n1nc(C(F)F)c2c(=O)[nH]c(C)nc21` (single isomer, unassigned) [Example 173, (R)- or (S)-3-(Difluoromethyl)-1-(2-methoxy-1-(4-(trifluoromethyl)phenyl)ethyl)-6-methyl-1H-pyrazolo[3,4-d]pyrimidin-4(5H)-one], the Ki is 4.6 nM.

With `Cc1nc2c(c(-c3cn[nH]c3)nn2C(C)c2ccc(C(F)(F)F)cc2)c(=O)[nH]1` (single isomer, unassigned) [Example 238], the inhibition constant Ki was determined as 48 nM.

As for `Cc1nc2c(c(CC(F)(F)F)nn2C(C)c2ccc(C(F)(F)F)cc2)c(=O)[nH]1` (single isomer, unassigned) [Example 64, (R)- or (S)-6-Methyl-3-(2,2,2-trifluoroethyl)-1-(1-(4-(trifluoromethyl)phenyl)ethyl)-1H-pyrazolo[3,4-d]pyrimidin-4(5H)-one], the Ki was 274 nM.

Take `Cc1nc2c(c(CC(F)(F)F)nn2C(C)c2ccc(OC(F)(F)F)cc2)c(=O)[nH]1` (single isomer, unassigned) [Example 66, (R)- or (S)-6-Methyl-3-(2,2,2-trifluoroethyl)-1-(1-(4-(trifluoromethoxy)phenyl)ethyl)-1H-pyrazolo[3,4-d]pyrimidin-4(5H)-one]: the Ki was 327 nM.

Consider `Cc1nc2c(c(CO)nn2C(C)c2ccc(Cl)s2)c(=O)[nH]1` (single isomer, unassigned) [Example 153, (R)- or (S)-1-(1-(5-Chlorothiophen-2-yl)ethyl)-3-(hydroxymethyl)-6-methyl-1H-pyrazolo[3,4-d]pyrimidin-4(5H)-one], for which the Ki is above 2960 nM.

In the case of `COCC(c1ccc(C(F)(F)F)cc1)n1nc(C(F)F)c2c(=O)[nH]c(C)nc21` (single isomer, unassigned) [Example 174, (S)- or (R)-3-(Difluoromethyl)-1-(2-methoxy-1-(4-(trifluoromethyl)phenyl)ethyl)-6-methyl-1H-pyrazolo[3,4-d]pyrimidin-4(5H)-one], the Ki was determined as 278 nM.

As a reminder, the Ki is a measure of affinity in units of concentration, obtained from inhibition or displacement.

For the origin of these results see patent publication US10160762B2, “6-alkyl dihydropyrazolopyrimidinone compounds as PDE2 inhibitors” (Merck Sharp & Dohme Corp., priority 2015, dated 2018).
